Columns and labels:
[1] = target: T1, angiotensin II (AII) receptors, cell surface membrane fraction of guinea pig adrenal gland (Cavia porcellus, UniProt Q9WV26); assay: Test A: displacement of radiolabelled AII binding to adrenal membrane fraction (in vitro); details: guinea pig adrenal membranes, read-out: IC50 (concentration for 50% displacement of radiolabelled AII binding)
T1 construct: from tissue; host or cells: guinea pig adrenal gland, cell surface membrane fraction
T1 sequence (Q9WV26 1-359): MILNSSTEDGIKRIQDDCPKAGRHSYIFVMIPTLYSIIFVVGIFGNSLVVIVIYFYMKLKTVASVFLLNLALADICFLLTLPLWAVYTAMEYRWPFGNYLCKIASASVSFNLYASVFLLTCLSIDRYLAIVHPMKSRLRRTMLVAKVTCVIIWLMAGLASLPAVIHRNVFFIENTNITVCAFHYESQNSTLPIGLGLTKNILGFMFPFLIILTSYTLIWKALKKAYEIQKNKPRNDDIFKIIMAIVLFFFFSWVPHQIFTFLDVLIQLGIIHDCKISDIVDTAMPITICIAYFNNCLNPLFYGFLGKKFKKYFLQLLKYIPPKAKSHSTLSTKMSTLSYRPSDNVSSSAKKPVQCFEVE
Method: Test A: This in vitro procedure involves the incubation of the test compound initially at a concentration of 100 micromolar (or less) in a buffered mixture containing fixed concentrations of radiolabelled AII and a cell surface membrane fraction prepared from a suitable angiotensin target tissue. In this test, the source of cell surface membranes is the guinea pig adrenal gland which is well known to responsd to AII. Interaction of the radiolabelled AII with its receptors (assessed as radiolabel bound to the particulate membrane fraction following removal of unbound radiolabel by a rapid filtration procedure such as is standard in such studies) is antagonized by compounds which also bind to the membrane receptor sites and the degree of antagonism (observed in the test as displacement of membrane-bound radioactivity) is determined readily by comparing the receptor-bound radioactivity in the presence of the test compound at the specified test concentration with a control value determined in the absence of the test compound. Using this procedure compounds showing at least 50% displacement of radiolabelled AII binding at a concentration of 10^-4 M are retested at lower concentrations to determine their potency. […]

[2] = system: angiotensin II-induced pressor responses; assay: Test C: antagonism of angiotensin II-induced pressor responses in anaesthetised or conscious rats (in vivo); details: iv, rat, i.v. administration
Method: Test C: This in vivo test involves using terminally-anaesthetised or conscious rats in which an arterial catheter has been implanted under anaesthesia for the measurement of changes in blood pressure. The AII antagonistic effects of the test compound following oral or parenteral administration, are assessed against angiotensin II-induced pressor responses. To ensure that the effect is specific, the effect of the test compound on vasopressin-induced pressor responses may also be determined in the same preparation.

Question: What does the source list for `Cc1cc2c(ccc(=O)n2Cc2ccc(-c3ccccc3-c3nnn[nH]3)cc2)c(C)n1.Cl` [Example I, 5,7-dimethyl-1[(2'-(1H-tetrazol-5-yl)biphenyl-4-yl)methyl]-1,6-naphthyridin-2(1H)-one hydrochloride]?
Answer: IC50 [1]: 8.84 nM; ED50 [2]: 0.048 mg/kg

From patent publication US5217976A, “1,6-naphthyridone derivatives having angiotensin II antagonist activity” (Imperial Chemical Industries PLC, priority 1991, dated 1993)
